Assay results taken from US20250163075A1, “HETEROBI[…] PROTEIN […]” (priority 2023, published 2025).

How the values were obtained:
KLHDC2 [1] = target: T1, KLHDC2 (Homo sapiens (Human), UniProt Q9Y2U9); test: Time-resolved fluorescence energy transfer (TR-FRET) assay with Bodipy-labeled ligand probe; format: binding
Source text: The integration start was set to 100 μs, and the integration time was set to 200 μs. The number of flashes was fixed at 100.

KLHDC2 [2] = target: T1, KLHDC2; test: Sypro orange thermal stability (thermal shift) assay; format: binding
Procedure: To identify small molecules that bind to KLHDC2 the Sypro orange thermal stability assay was utilized. […] Assay solution containing 0.5 μM KLHDC2, 25 mM HEPES, 200 mM NaCl and 5% Sypro Orange pH 7.5 was added to a final volume of 20 ul and a final experimental ligand concentration of 50 uM. DMSO alone was included as a negative control and peptide sub2 was included as a positive control at 100 uM. The fluorescence of Sypro orange in each sample was measured on a Quantstudio 5 or a Quantstudio 6 at temperatures ranging from 23 to 75° C. at 0.05° C./second. Data reduction resulting in thermal stability (calculated using the Boltzmann and first derivative minima equations) was completed in the Thermo Scientific protein thermal shift software v1.4.

T1 sequence (Q9Y2U9 whole entry): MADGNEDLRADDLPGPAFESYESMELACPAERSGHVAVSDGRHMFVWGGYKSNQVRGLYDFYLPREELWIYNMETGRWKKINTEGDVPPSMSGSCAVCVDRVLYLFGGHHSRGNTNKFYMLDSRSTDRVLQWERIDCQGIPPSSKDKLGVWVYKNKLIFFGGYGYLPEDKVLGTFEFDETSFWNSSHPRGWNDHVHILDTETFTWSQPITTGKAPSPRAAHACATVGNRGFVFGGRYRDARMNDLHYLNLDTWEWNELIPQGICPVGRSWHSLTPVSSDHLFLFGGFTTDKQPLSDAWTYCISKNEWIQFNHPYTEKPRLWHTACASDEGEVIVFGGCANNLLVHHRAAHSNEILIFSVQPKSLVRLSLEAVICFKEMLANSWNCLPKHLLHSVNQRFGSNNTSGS

SMILES | IC50 (KLHDC2 [1]; Table 1) [µM] | ΔTm (° C.) 50 μM ligand (KLHDC2 [2]; Table 1, 0.5 μM KLHDC2) [°C] | IC50 (KLHDC2 [1]; Table 2) [µM] | ΔTm (° C.) 50 μM ligand (KLHDC2 [2]; Table 2, 0.5 μM KLHDC2) [°C]
COc1ccc2ccc(-c3nc(CC(=O)NCC(=O)O)cs3)cc2c1 [Compound 14, (2-(2-(7-Methoxynaphthalen-2-yl)Thiazol-4-yl)Acetyl)Glycine] | 1.7 | 4.3 ± 0.2 | – | –
O=C(O)CNC(=O)Cc1csc(-c2ccc3cc[nH]c3c2)n1 [Compound 23, (2-(2-(1H-Indol-6-yl)Thiazol-4-yl)Acetyl)Glycine] | 1.1 | – | – | –
COCOc1ccc(-c2nc(CC(=O)NCC(=O)O)cs2)c(Cl)c1 [i] | 24.1 | 3.52 ± 0.424 | – | –
O=C(O)CNC(=O)Cc1csc(-c2ccc3c(c2)NCCO3)n1 [Compound 27, (2-(2-(3,4-Dihydro-2H-Benzo[B][1,4]Oxazin-6-yl)Thiazol-4-yl)Acetyl)Glycine] | 3 | – | – | –
O=C(O)CNC(=O)Cc1csc(-c2cccc3ccccc23)n1 [Compound 12, (2-(2-(Naphthalen-1-yl)Thiazol-4-yl)Acetyl)Glycine] | 8.8 | 3.7 ± 0.0 | – | –
O=C(O)CNC(=O)Cc1csc(-c2ccc3cccc(OCCN4CCNCC4)c3c2)n1 [Compound 19, (2-(2-(8-(2-(Piperazin-1-yl)Ethoxy)Naphthalen-2-yl)Thiazol-4-yl)Acetyl)Glycine] | – | – | 1.6 | 4.8 ± 0.0
O=C(O)CNC(=O)Cc1csc(-c2ccc3ccccc3c2F)n1 [Compound 13, (2-(2-(1-Fluoronaphthalen-2-yl)Thiazol-4-yl)Acetyl)Glycine] | 1.8 | 6.0 ± 0.2 | – | –
COc1ccc2cc(-c3nc(CC(=O)NCC(=O)O)cs3)ccc2c1 [Compound 10, (2-(2-(6-Methoxynaphthalen-2-yl)Thiazol-4-yl)Acetyl)Glycine] | 9.6 | 3.9 ± 0.1 | – | –
O=C(O)CNC(=O)Cc1csc(-c2cccc3cccnc23)n1 [Compound 11, (2-(2-(Quinolin-8-yl)Thiazol-4-yl)Acetyl)Glycine] | 7.1 | 2.7 ± 0.4 | – | –
O=C(O)CNC(=O)Cc1csc(-c2ccc3ccccc3c2)n1 [Compound 8, (2-(2-(Naphthalen-2-yl)Thiazol-4-yl)Acetyl)Glycine] | 3.9 | 6.0 ± 0.0 | – | –
COCCOc1cccc2ccc(-c3nc(CC(=O)NCC(=O)O)cs3)cc12 [Compound 15A] | – | – | 1.1 | 4.3 ± 0.2
O=C(O)CNC(=O)Cc1csc(-c2cccc3ccncc23)n1 [Compound 9, (2-(2-(Isoquinolin-8-yl)Thiazol-4-yl)Acetyl)Glycine] | 20.3 | 1.8 ± 0.0 | – | –
O=C(O)CNC(=O)Cc1csc(-c2ccc3ccn(CCCN4CCNCC4)c3c2)n1 [Compound 24, (2-(2-(1-(3-(Piperazin-1-yl)Propyl)-1H-Indol-6-yl)Thiazol-4-yl)Acetyl)Glycine] | – | – | 1.2 | –
